Key:
Akt phosphorylation = test: Akt Phosphorylation Assay (western blot), Panc-1; type: cell-based, human; conditions: at 10 μM, * = activation
In short: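 Phospho-Akt (Ser473) was measured by western blot in lysates of KRas G12D Panc-1 cells exposed to test compound for 6 h at 37 °C, either at 10 μM final with 0.3% DMSO or as serial dilutions for IC50. One format used overnight 0.5% FBS starvation followed by a 15 min pulse of 1.5 ng/ml EGF. The other used cells in 10% FBS with no stimulation.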

KRas G12D mutant = test: Ras GTP Binding Domain Inhibition Assay (Ras Superfamily Assay); conditions: 20 μM compound
In short: (§1)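 Ni-plate capture of His-tagged protein (10-30 μg/mL, o/n 4° C); cpd 20 μM or dilution series, 1% DMSO, 3 h RT ± Sos 556-1049 last h; 100 nM Cy-labelled GTP 45 min RT; 3× wash; fluorescence read.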

KRas wild type = test: as above; conditions: 20 μM compound
In short: as §1

Rac-1 = target: T1, Rac-1 (Homo sapiens, UniProt P63000); test: as above; conditions: read-out: Rac-1: % inh.
T1 construct: made in house
In short: as §1

KRas G12D mutant + SOS: % inh. (KRas G12D mutant; with SOS): D (D = 76-100% inhibition) | KRas G12D mutant: % inh. (KRas G12D mutant; without SOS): D (D = 76-100% inhibition) | KRas wild type + SOS: % inh. (KRas wild type; with SOS): D (D = 76-100% inhibition) | KRas wild type: % inh. (KRas wild type; without SOS): D (D = 76-100% inhibition) | inhibition at 20 µM (Rac-1): 76 to 100%
Compound: COc1ccnc(Nc2nc(-c3nccn3C)nn3cc(-c4cccnc4)c(-c4cccnc4)c23)c1 [Compound 169, N-(4-methoxypyridin-2-yl)-2-(1-methyl-1H-imidazol-2-yl)-5,6-di(pyridin-3-yl)pyrrolo[2,1-f][1,2,4]triazin-4-amine]
% inh of Akt phosphorylation in Panc-1 (Akt phosphorylation): C* (46-84% activation)

Reference: patent US12459951B2, “Compounds that interact with RAS superfamily proteins for treatment of cancers, inflammatory diseases, rasopathies, and fibrotic disease” (SHY Therapeutics, LLC, priority 2022, dated 2025)
